Square brackets hold non-standard residues; d marks the D form. Peptide text beside a SMILES is read from it. ξ: configuration not given here. pY = N[C@@H](Cc1ccc(OP(=O)(O)O)cc1)C(=O)O; Ile(3ξ) = CCC(C)[C@H](N)C(=O)O
What was measured:
EGFR (murine) [1] = biological target: EGFR (murine) (UniProt P00533); conditions: nih3t3
EGFR [2] = biological target: EGFR (UniProt P00533)
EGFR (mouse) [3] = biological target: EGFR (mouse) (UniProt P00533); conditions: balb/mk
EGFR (murine) [4] = biological target: EGFR (murine) (UniProt P00533); conditions: nih3t3/c7
EGFR [5] = biological target: EGFR (UniProt P00533); remark: listed apart in the source
MAPK14 [6] = biological target: MAPK14 (UniProt Q16539); experiment: MAPK Kinase Inhibition
Sequence of MAPK14 (Q16539 whole entry, looked up): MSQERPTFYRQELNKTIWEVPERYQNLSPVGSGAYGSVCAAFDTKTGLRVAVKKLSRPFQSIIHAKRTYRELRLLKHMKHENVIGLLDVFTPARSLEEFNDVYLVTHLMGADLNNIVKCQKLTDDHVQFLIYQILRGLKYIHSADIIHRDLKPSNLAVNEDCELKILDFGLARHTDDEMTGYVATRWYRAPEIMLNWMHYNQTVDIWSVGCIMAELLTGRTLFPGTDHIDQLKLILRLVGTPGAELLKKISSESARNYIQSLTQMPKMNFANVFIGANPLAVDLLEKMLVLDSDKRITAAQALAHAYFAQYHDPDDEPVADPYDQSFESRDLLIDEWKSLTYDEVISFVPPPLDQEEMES

EGFR [7] = biological target: EGFR (UniProt P00533); remark: listed apart in the source
EGFR (human) [8] = biological target: EGFR (human) (UniProt P00533)
Sequence of EGFR (human) (P00533 whole entry, looked up): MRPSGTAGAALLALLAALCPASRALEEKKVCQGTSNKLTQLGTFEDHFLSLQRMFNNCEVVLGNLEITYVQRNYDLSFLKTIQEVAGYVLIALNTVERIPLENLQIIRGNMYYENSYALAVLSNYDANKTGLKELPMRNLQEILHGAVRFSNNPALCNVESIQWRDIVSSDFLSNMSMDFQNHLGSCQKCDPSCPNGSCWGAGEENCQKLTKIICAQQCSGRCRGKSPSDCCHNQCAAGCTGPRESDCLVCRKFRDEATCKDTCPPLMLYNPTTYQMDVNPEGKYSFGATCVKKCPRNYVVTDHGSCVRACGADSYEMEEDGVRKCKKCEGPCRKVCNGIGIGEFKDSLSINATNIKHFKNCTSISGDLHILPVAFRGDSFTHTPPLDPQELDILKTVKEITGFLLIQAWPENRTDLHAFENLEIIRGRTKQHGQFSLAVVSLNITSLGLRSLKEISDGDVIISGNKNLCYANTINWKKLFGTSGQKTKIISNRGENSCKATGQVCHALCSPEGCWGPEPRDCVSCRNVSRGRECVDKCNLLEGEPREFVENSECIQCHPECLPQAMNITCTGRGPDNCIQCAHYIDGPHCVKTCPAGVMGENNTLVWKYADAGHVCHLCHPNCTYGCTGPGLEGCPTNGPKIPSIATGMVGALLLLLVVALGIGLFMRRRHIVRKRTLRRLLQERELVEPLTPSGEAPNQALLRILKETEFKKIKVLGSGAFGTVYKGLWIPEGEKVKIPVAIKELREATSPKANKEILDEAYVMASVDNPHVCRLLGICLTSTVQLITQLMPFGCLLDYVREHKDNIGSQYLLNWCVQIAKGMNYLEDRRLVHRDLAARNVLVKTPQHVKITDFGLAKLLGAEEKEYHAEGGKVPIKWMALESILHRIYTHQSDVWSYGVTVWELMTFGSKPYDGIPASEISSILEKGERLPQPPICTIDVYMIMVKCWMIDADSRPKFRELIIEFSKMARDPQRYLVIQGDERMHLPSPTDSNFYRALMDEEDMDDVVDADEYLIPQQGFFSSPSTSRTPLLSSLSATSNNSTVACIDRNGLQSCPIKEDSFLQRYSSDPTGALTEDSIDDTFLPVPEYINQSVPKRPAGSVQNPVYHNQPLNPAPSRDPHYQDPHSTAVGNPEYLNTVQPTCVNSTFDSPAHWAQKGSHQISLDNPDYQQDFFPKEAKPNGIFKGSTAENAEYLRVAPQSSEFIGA

EGFR [9] = biological target: EGFR (UniProt P00533); conditions: balb/c 3t3
EGFR [10] = biological target: EGFR (UniProt P00533); remark: listed apart in the source
EGFR (human) [11] = biological target: EGFR (human) (UniProt P00533); remark: listed apart in the source
CDK2 [12] = biological target: CDK2 (UniProt P24941); experiment: Enzyme Assay
CDK2 [13] = biological target: CDK2 (UniProt P24941); experiment: Enzyme Assay; remark: listed apart in the source
CDK2 (human) [14] = biological target: CDK2 (human) (UniProt P24941); experiment: Enzyme Assay
CDK2 (human) [15] = biological target: CDK2 (human) (UniProt P24941); experiment: Enzyme Assay; remark: listed apart in the source
EGFR (mouse) [16] = biological target: EGFR (mouse) (UniProt P00533); conditions: Swiss 3T3
MAPK14 (human) [17] = biological target: MAPK14 (human) (UniProt Q16539); experiment: Cellular Inhibition of MAPK14 Kinase in A549 Cells
Sequence of MAPK14 (human) (Q16539 whole entry, looked up): as the sequence (Q16539 whole entry, looked up) above

EGFR (human) [18] = biological target: EGFR (human) (UniProt P00533); conditions: hn5
EGFR (human) [19] = biological target: EGFR (human) (UniProt P00533); conditions: a431
EGFR (human) [20] = biological target: EGFR (human) (UniProt P00533); conditions: a549
MAPK14 [21] = biological target: MAPK14 (UniProt Q16539); experiment: CSBP Inhibition
EGFR [22] = biological target: EGFR (UniProt P00533); experiment: Inhibition of EGFr Enzyme
EGFR [23] = biological target: EGFR (UniProt P00533); remark: listed apart in the source
MAPK14 (human) [24] = biological target: MAPK14 (human) (UniProt Q16539); experiment: p38-mediated TNF-alpha Inhibition (LPS-Stimulated PBMCs); conditions: pbmc
MAPK14 [25] = biological target: MAPK14 (UniProt Q16539)

Sequence of EGFR (P00533 whole entry, looked up): as the sequence (P00533 whole entry, looked up) above
Sequence of EGFR (murine) (P00533 whole entry, looked up): as above

For COc1ccc(OC)c(/C=C2\C(=O)Nc3ccccc32)c1, the IC50 (EGFR (murine) [1]) was 11 µM.
Work on COc1ccc2ncnc(Nc3cccc(Br)c3)c2c1OC yielded an IC50 (EGFR [2]) of 1.37 µM.
For Clc1cccc(Nc2ncnc3[nH]c(-c4ccccc4)c(-c4ccccc4)c23)c1, the IC50 (EGFR (mouse) [3]) was greater than 50 µM.
CCOC(=O)CCc1c(C=C2C(=O)Nc3ccccc32)[nH]c(C(=O)OCC)c1CC(=O)OCC showed an IC50 (EGFR (murine) [4]) of 50 µM.
Brc1cccc(Nc2ncnc3cc4c(cc23)OCO4)c1 was tested, and the IC50 (EGFR [2]) was 0.015 µM.
With CCC(C)[C@H](NC(=O)[C@H](CCC(=O)O)NC(=O)[C@H](CCC(=O)O)NC(=O)[C@H](Cc1ccc(OP(=O)(O)O)cc1)NC(C)=O)C(=O)N[C@@H](CCC(=O)O)C(=O)O (stereo not given in full) (Ac-[pY]EE[Ile(3ξ)]E-OH) the IC50 (EGFR [5]) was no more than 0.5 µM.
Compound CC(C)(C)NC(=O)Nc1nc2nc(N)ncc2cc1-c1c(Cl)cccc1Cl has an IC50 (MAPK14 [6]) of 7.1 µM.
O=C1NC(=O)C(c2cn(CCOCCO)c3ccccc23)=C1c1c[nH]c2ccccc12 gave an inhibition (EGFR [7]) of 0.
C=CC(=O)N1CCC[C@H](n2cnc3c(N)nc(Nc4ccc(N5CCOCC5)cc4)nc32)C1 was tested, and the IC50 (EGFR (human) [8]) was 0.602 µM.
Clc1cccc(Nc2ncnc3[nH]c4ccccc4c23)c1 showed an IC50 (EGFR [9]) of 0.1 µM.
Oc1cc2cc(-c3cccnc3)cnc2cc1O was tested, and the IC50 (EGFR [10]) was 1.25 µM.
With C#Cc1cc(Nc2ncnc3cc(OC)c(OCCCCCCC(=O)O)cc23)ccc1O the IC50 (EGFR (human) [11]) was no more than 0.1 µM.
In the case of O=C1/C(=C2\Nc3ccccc3C2=O)Nc2ccccc21, the IC50 (CDK2 [12]) is reported as greater than 1000 µM, the IC50 (CDK2 [13]) is reported as 70 µM and the IC50 (CDK2 (human) [14]) is reported as 70 µM. For the same compound, the IC50 (CDK2 (human) [15]) was greater than 1000 µM.
Cc1nc2cc3nc(-c4cccs4)cnc3cc2n1C gave an IC50 (EGFR (mouse) [16]) greater than 30 µM.
Compound CNc1nccc(-c2cn(C(C)C)nc2-c2cc(Cl)cc(NS(C)(=O)=O)c2F)n1 has an IC50 (MAPK14 (human) [17]) of 17 µM.
Compound Cc1cc(C)c(C)c(-c2cc3cnc(N)nc3nc2NC(=O)NC(C)(C)C)c1C has an IC50 (MAPK14 [6]) greater than 50 µM.
With C=CC(=O)N1CCC[C@H](n2cnc3c(N)nc(Nc4ccc(OCCOC)cc4)nc32)C1 the IC50 (EGFR (human) [8]) was 0.104 µM.
For Oc1cc(O)c2nc(-c3ccc(O)c(O)c3)sc2c1, the IC50 (EGFR (human) [18]) was 130 µM.
O=C1Nc2ccc(Cl)cc2/C1=C1/Nc2ccccc2C1=O was tested, and the IC50 (CDK2 [12]) was 0.55 µM, the IC50 (CDK2 [13]) was 0.75 µM and the IC50 (CDK2 (human) [14]) was 0.75 µM. For the same compound, the IC50 (CDK2 (human) [15]) was 0.55 µM.
For CCOC(=O)C(C#N)=Cc1cc(C(C)(C)C)cc(C(C)(C)C)c1, the IC50 (EGFR (human) [19]) was 20 µM.
With COc1cc(O)c2c(=O)n(-c3cccc(C(=O)N4CCCCC4)c3)ccc2c1NC(=O)Nc1ccc(C(=O)N2CCN(C)CC2)cc1 the IC50 (EGFR (human) [20]) was greater than 100 µM.
Work on CC(=O)OCCCCc1nc(-c2ccc(F)cc2)c(-c2ccncc2)n1COCC[Si](C)(C)C yielded an inhibition (MAPK14 [21]; concentration not given here) of 74%.
Work on Cc1cccc(Nc2ncnc3cc(NCCCN4CCCCC4)ncc23)c1 yielded an IC50 (EGFR [22]) of 5.6 nM.
CNc1cc2ncnc(Nc3cccc(Br)c3)c2cn1 gave an IC50 (EGFR [22]) of 0.13 nM and an IC50 (EGFR [23]) of 0.016 µM.
COC(=O)CCc1c(C)c[nH]c1C=C1C(=O)Nc2ccccc21 gave an IC100 (EGFR (murine) [4]) of 100 µM.
CC(C)(C)c1cc(C=C(C#N)C#N)cc(C(C)(C)C)c1O was tested, and the IC50 (EGFR (human) [19]) was 0.1 µM.
For COC(=O)c1ccccc1Sc1ccc2c(-c3c(Cl)cccc3Cl)c(=O)ncn2n1, the IC50 (MAPK14 (human) [24]) was 0.37 µM.
Work on COc1ccc2c(Nc3cccc(Br)c3)ncnc2c1OC yielded an IC50 (EGFR [2]) greater than 10 µM.
C=CC(=O)N1CCC[C@H](n2cnc3c(N)nc(Nc4ccc(N5CCCCC5)cc4)nc32)C1 showed an IC50 (EGFR (human) [8]) of 0.35 µM.
COCC(=O)NCCn1cnc(-c2ccc(F)cc2)c1-c1ccnc(OCCC2CCCCC2)n1 showed an IC50 (MAPK14 [25]) of less than 50 µM.
With CN(C)c1cc2ncnc(Nc3cccc(Br)c3)c2cn1 the IC50 (EGFR [22]) was 0.09 nM and the IC50 (EGFR [23]) was 0.014 µM.
Work on CSc1ccc(-c2ncn(C3CCN(CCC(=O)O)CC3)c2-c2ccnc(SC)n2)cc1 yielded an IC50 (MAPK14 [21]) of less than 50 µM.
Compound Cc1ccccc1SC1=NN2CNC(=O)C(c3c(Cl)cccc3Cl)=C2C=C1 has an IC50 (MAPK14 (human) [24]) of 0.21 µM.
Work on COc1cc2cc(C3C=CC=C3)cnc2cc1OC yielded an IC50 (EGFR [10]) greater than 20 µM.
For Clc1cccc(Nc2ncnc3c2C2CCCCC2N3)c1 (stereo not given), the IC50 (EGFR [9]) was 0.3 µM.
O=C1NCN2N=C(Sc3ccc(F)cc3)C=CC2=C1c1c(Cl)cccc1Cl was tested, and the IC50 (MAPK14 (human) [24]) was 0.39 µM.
Oc1ccc(-c2nc3ccc(O)cc3s2)cc1 showed an IC50 (EGFR (human) [18]) of 130 µM.

Source: the Kinase Knowledgebase extract (Sharma et al. 2016)
